The results in this text go back to patent US5212167A, “Modulation of receptor-mediated ion transport” (Trustees of Boston University, priority 1991, dated 1993).

One data set concerns NMDA receptor. The data set can be described thus: Whole-cell patch clamp, NMDA-induced currents in cultured chick spinal cord neurons. Conditions: for enhancement of the NMDA response (percent change): 100 μM pregnenolone sulfate. How it is done:
(§1) Cultures of dissociated spinal cord neurons were prepared from 7-day chick embryos as described by Wu et al. (Mol. Pharmacol. 37:597-602 (1990)). Briefly, dissociated cells were plated on collagen-coated 35-mm tissue culture dishes in Eagle's minimum essential medium supplemented with 2.4 mM glutamine, 10% (v/v) heat-inactivated horse serum, 5% (v/v) chick embryo extract, 100 units/ml penicillin, and 100 μg/ml streptomycin. Cultures were maintained in a humidified atmosphere of 5% CO2 /95% air at 37° C. Cytosine arabinoside (1 μM) was added after 36 hours to control the proliferation of non-neuronal cells. This medium was removed one day later and replaced with a similar medium supplemented with 20.5 mM glucose and 18 mM KCl, and containing 2.5% chick embryo extract. Fresh medium was added twice weekly. Cultured neurons were used in experiments 2-4 weeks after plating.
(§2) Electrophysiological experiments were carried out in 35-mm tissue culture dishes on the stage of an inverted phase-contrast microscope. Whole-cell currents were recorded by the whole-cell variant of the patch clamp technique described by Hamill et al. (Pflugers Arch. 391:85-100 (1981)). Patch electrodes were fabricated with a double pull from thin-wall borosilicate glass microcapillary pipets (Fischer) on a David Kopf vertical pipet puller (Model 700D). Electrode resistance was 5.2±0.12 M.OMEGA. (n=65) when filled with intracellular solution. The electrode solution usually contained (in mM): 10 KCl, 3 sodium gluconate, 140 potassium gluconate, 11 EGTA and 10 HEPES (pH adjusted to 7.2 with KOH). For GABA experiments, a high Cl-intracellular solution (in mM, 140 KCl, 3 NaCl, 1 MgCl2, 11 EGTA and 10 HEPES, pH adjusted to 7.2 with KOH) was used. The bath solution contained (in mM): 150 NaCl, 4 KCl, 1 CaCl2, 1 MgCl2 and 10 HEPES (pH adjusted to 7.2 with NaOH). Since NMDA-induced currents are subject to voltage-dependent block by extracellular Mg^2+, no magnesium salts were added to the bath solution. All experiments were performed at room temperature (23°-25° C.).
Recordings were made using a Yale MK V amplifier. After forming a tight seal (typically 1-10 G.OMEGA.) capacitative transients were minimized. The patch of membrane under the pipet tip was then ruptured by gentle suction to obtain the whole-cell configuration. Cells with series resistance greater than 10 M.OMEGA. were rejected. Series resistance, which initially measured 7.3± 0.14 M.OMEGA. (n=65), was compensated (>60%). Only cells with resting membrane potential more negative than -55 mV and input resistance in excess of 150 M.OMEGA. were used. All recordings were made with the cell membrane potential clamped at -70 mV. Currents were filtered at 1 kHz using an 8-pole Bessel filter and digitized (40 ms/point) using an on-line data acquisition system (pClamp, Axon Instruments).
Drug solutions were applied to single neurons by pressure ejection (15 psi) from 7-barrel pipets (Choi et al., J. Neurophysiol 45:605-620 (1981) and Chan, C. Y. and D. H. Farb, J. Neurosci. 5:2365-2373 (1985)). Pipets were pulled from Omega dot tubing to a tip diameter of about 1 μm per barrel and broken back to about 3-5 μm per barrel after filling. Seven-barrel pressure pipets were positioned approximately 50μm from the neuronal soma. Under these conditions, the drug solution in the pressure pipet rapidly and effectively replaces the solution surrounding the target neuron, with less than 10% dilution (Choi and Fischbach, J. Neurophysiol. 45:605-620 (1981)).
All drugs were obtained from Sigma, with the exception of AMPA hydrobromide (Research Biochemicals) and pregnenolone sodium sulfate (Steraloids). Stock solutions of steroids were prepared in dimethyl sulfoxide (final concentration, 0.5%, v/v).

For another data set, the system named is GABA receptor. The experiment in a line: Whole-cell patch clamp, GABA-induced currents in cultured chick spinal cord neurons. Format: cell-based. How it is done:
as §1
Electrophysiological experiments were carried out in 35-mm tissue culture dishes on the stage of an inverted phase-contrast microscope. Whole-cell currents were recorded by the whole-cell variant of the patch clamp technique described by Hamill et al. (Pflugers Arch. 391:85-100 (1981)). […]
(§3) Recordings were made using a Yale MK V amplifier. […] Series resistance, which initially measured 7.3± 0.14 M.OMEGA. […]
(In general: In patch-clamp work, channel activity is measured electrically.)

The subject of data set [1] is non-NMDA glutamate receptor. The data set can be described thus: Whole-cell patch clamp, kainate- or AMPA-induced currents in cultured chick spinal cord neurons. The class given is cell-based. How it is done:
as §1
as §2, with “All experiments were performed at room temperature (23°-25° C.).” left out
as §3

For the next data set, the system named is glycine receptor. The experiment in a line: Whole-cell patch clamp, glycine-induced currents in cultured chick spinal cord neurons. Format: cell-based. Particulars: for inhibition of the glycine response: 50 μM glycine, n=6. How it is done:
as §1
as §2, with “All experiments were performed at room temperature (23°-25° C.).” left out
as §3

Each structure is given as a SMILES string. pEC50: −log10 of the molar value. Where a name gives a salt, the structure may show the parent alone.

As usually defined, the pEC50 is −log10 of the EC50, conventionally taken in molar units.

Consider `C[C@]12CCC(=O)C=C1CC[C@@H]1[C@@H]2[C@@H](O)C[C@@]2(C)[C@H]1CC[C@]2(O)C(=O)CO` [Hydrocortisone, reference compound], for which the “enhancement of NMDA-induced current (in words)” value in the data set on NMDA receptor (100 μM steroid) is given as “failed to enhance”. The “inhibition of the NMDA response” value in the data set on NMDA receptor (100 μM steroid, n=6, mean ±SEM) is recorded as 15±2.4%.

`NCC(=O)O` [glycine, reference compound]: the “potentiation of the NMDA response by glycine in the presence of pregnenolone sulfate” value in the data set with NMDA receptor (10 μM glycine, 100 μM pregnenolone sulfate present) is given as “still evident”.

For `CC(=O)C1CCC2C3CC=C4CC(OS(=O)(=O)O)CCC4(C)C3CCC12C` (centres unmarked) [pregnenolone sulfate], in the data set on NMDA receptor (10 μM glycine present), the “potentiation of the NMDA response in the presence of maximal glycine versus without added glycine” value is “did not differ significantly”. The “increase of response to NMDA” value with NMDA receptor (30 μM NMDA, 100 μM steroid, -70 mV) is recorded as “approximately threefold”. Moreover, the “enhancement of the NMDA response (percent change)” value was determined as 86±7.5% in the data set with NMDA receptor (100 μM NMDA, n=4, mean ±SEM) and 1.3±1.3% with NMDA receptor (1 mM NMDA, n=2, mean ±SEM). The “increase in the ionic current across the cellular membrane” value in the data set with NMDA receptor (appropriate concentration (summary statement)) is recorded as 3 fold. Besides, the pEC50 in the data set with NMDA receptor (read-out: EC50 for enhancement of the NMDA response, FIG. 2 dose response) is 4.24; with GABA receptor (FIG. 2 dose response, read-out: EC50 for inhibition of the GABA response), 5.15. Moreover, in the data set on GABA receptor (summary statement), the “effect on GABA receptor-mediated ion channel activity (in words)” value was “slight decrease”. In data set [1] (AMPA-induced current), the “effect on response elicited by AMPA” value is listed as “slightly inhibited”. For the same molecule, in data set [1] (kainate-induced current), the “effect on response elicited by kainate” value is given as “slightly inhibited”. The “effect on non-NMDA glutamate-induced activity (in words)” value in data set [1] (summary statement) is given as “inhibited”. The “inhibition of the glycine response” value came to 61±2% with glycine receptor (5 μM pregnenolone sulfate) and 91±2% with glycine receptor (100 μM pregnenolone sulfate). For the same molecule, the “effect on glycine receptor-mediated ion channel activity (in words)” value with glycine receptor (summary statement) is recorded as “slight decrease”.
